We go through one compound from patent US7220732B2, “Compounds useful as photodynamic therapeutic agents” (priority 2002, dated 2007).

Read-outs that look alike come from different tables or passages of the source.

Format in all cases: cell-based
Test [1] has as its system HeLa cells. Briefly: Fluorescence microscopy efflux study in HeLa cells. The following applies: after 3 hrs incubation with 10^−5 M. As for the experimental part:
Cells were seeded at a density of 30,000 cells/well in chamber slides and allowed to adhere for 24 hr. A compound of the present invention (10^−5 M) was then added to each chamber and incubated at 37° C. in the dark for 3 hrs. The same procedure was used as for the uptake studies, but for the efflux studies, the cells were treated with fixative solution at specified times after removal of the drug, for example, 5 min, 15 min, 30 min, 1 hr, 2 hr, 3 hr, 6 hr and 24 hr. The slides were then viewed using an Axio Zeiss fluorescent microscope. The cells were examined at the different time points using two different filters. The rhodamine filter was used to visualise the compound of the present invention. […]
LabWorks (Bioimaging Systems) was used to calculate the average fluorescence intensity per cell for each of the different time points used in the uptake and efflux studies for the compounds of the present invention. […] The DAPI filter was used to accurately count the number of cells in each field of view and the rhodamine filter was used to quantify the fluorescence of the compounds of the present invention.
Using the assay method set out above under the heading “Fluorescence Microscopy”, the efflux of 2a was examined from Hela cells and the data are illustrated in FIG. 7. […]

For the next test, the system named is MRC5 cells. As to the kind of experiment: Light/dark cytotoxicity study (MTT) in MRC5 cells. How it is done: MRC5 and HeLa cell cultures were maintained in MEM (minimum essential medium) containing 10% (v/v) foetal calf serum (FCS), 1% (v/v) non-essential amino acids, 2 μg/ml Fungizone (Trade Mark) (amphotericin B), 50 μg/ml penicillin, 50 μg/ml streptomycin, 20 mM HEPES and 1% (v/v) L-Glutamine. Cells were passaged at least twice before use in the cytotoxicity assays.
Stock haematoporphyrin water-dimethyl sulphoxide (DMSO) (100:1 (v/v)) solutions were diluted with MEM containing 10% FCS. Cells were seeded at 5,000 cells/well in 96-well plates and incubated for 24 hr at 37° C. The 24 hour incubation period was chosen having regard to the slower uptake of haernatoporphyrin in the absence of Cremophor, when compared to the compounds of the present invention in the presence of Cremophor (see below). Cells were then incubated with haematoporphyrin in the dark for 24 hr at 37° C. The haematoporphyrin laden culture medium was then removed by filtration, the cells were washed with PBS and fresh culture medium was added to each well. A 500 W light source, passed through a red glass and water filter barrier, (to ensure cells are irradiated with light of wavelength greater than 570 nm) was used to irradiate the plates for both 15 and 30 min. Following irradiation, the cells were incubated for a further 48 hr at 37° C. before being assessed for cell survival.
Stock 2a or 2b water-Cremophor EL (Trade Mark—CAS 61791-12-6) (1:250 (v/v)) solutions were diluted with MEM containing 10% FCS. Cells were seeded at 5,000 cells/well in 96-well plates and incubated for 24 hr at 37° C. Cells were then incubated with 2a or 2b in the dark for 3 hr at 37° C. The 3 hour incubation period was chosen to reflect the faster cellular uptake of 2a or 2b in the presence of Cremophor, when compared to the cellular uptake of haematoporphyrins in the absence of Cremophor. The 2a or 2b laden culture medium was then removed by filtration, the cells were washed with PBS and fresh culture medium was added to each well. The plates were then irradiated using a 500 W light source passed through a red glass and water filter barrier, (thereby ensuring cells are irradiated with light of wavelength greater than 570 nm) for both 15 and 30 min.
Following irradiation, the cells were incubated for a further 48 hr at 37° C. before being assessed for cell survival. The dark toxicity of compounds of the present invention was also assessed in each experiment.
Cell viability was estimated using the standard MTT (microtiter tetrazolium) assay. This assay measures mitochondrial dehydrogenase activity and is based on the reduction of a soluble yellow tetrazolium salt to a blue, insoluble MTT formazan product by this enzyme. The subsequent colour change produced by viable cells was quantified using a plate reader (VICTOR^2 1420 multilabel HTS counter, Wallac). As mentioned above under the headings “Cytotoxicity”, the cells are incubated at 37° C. for 48 hours, following which the MTT solution was added to the cells at a final concentration of 0.5 mg/ml and incubated for 3 hr at 37° C. The MTT solution was then removed by filtration and 100 μl DMSO was added to each well in order to lyse the cells and release the formazan dye. The plates were read 1 hr later at 540 nm.
Prism (Trade Mark) […] was used to graph the data obtained from the MTT assays and the uptake/efflux experiments. This programme allows non-linear regression analysis and the generation of sigmoidal dose response curves. Prism (Trade Mark) also automatically calculates EC50 values.
Light toxicity assays were also carried out as described above under “Assay methods” in HeLa and MRC5 cells for haematoporphyrin (FIGS. 9 and 10), 2a (FIGS. 11 and 12) and 2b (FIGS. 13 and 14).

The test system of test [2] is HeLa cells. As to the kind of experiment: Fluorescence microscopy cellular localisation (DAPI dual staining). The following applies: 10^−5 M, DAPI nuclear stain. How it is done:
Cells were seeded at a density of 30,000 cells/well in chamber slides and allowed to adhere for 24 hr. 2a (10^−5 M) was then added to each chamber and incubated at 37° C. in the dark for either 1 hr or 3 hrs at 37° C.—a one hour incubation was used for FIGS. 4 and 5. The medium was removed and the cells were washed 4 times with drug-free (2a free) medium. The cells were then fixed with 3.7% (v/v) formaldehyde for 15 min at 37° C. The fixative solution was removed and the cells were washed twice with sterile PBS. DAPI (4′,6-diamidino-2-phenylindole) nuclear stain (1/1000) was then incubated with the cells for 10 min at 37° C., following which the cells were washed twice with PBS. Cells were then mounted in Vectashield (Trade Mark) mounting medium.
The cells were viewed using an Axio Zeiss fluorescent microscope. The cells were examined at the different time points using two different filters. The rhodamine filter, which is specific for the wavelength region in which 2a fluoresces, was used to visualise 2a. The DAPI filter was employed to examine the nuclei of the cells.
Cancer cellular uptake of a photosensitiser is a prerequisite for it to act as a PDT agent. Delivery of our proposed PDT agents required formulation of the sensitisers in order to impart water solubility. […]

As a reminder, the EC50 is the midpoint of the concentration-response curve.

Regarding `F[B-]1(F)n2c(-c3ccccc3)cc(-c3ccccc3)c2N=C2C(c3ccccc3)=CC(c3ccccc3)=[N+]21` [Compound 2a], the “time to complete efflux” value with HeLa cells [1] was found to be 1000 min. Besides, the EC50 with MRC5 cells (MRC5, 0 J/cm^2 light (no light), read-out: EC50 (dark toxicity)) was determined as 3500 nM; in the test with MRC5 cells (MRC5, 8 J/cm^2 light (15 mins from a 500 W light source), read-out: EC50), 2000 nM; in the test on MRC5 cells (MRC5, 16 J/cm^2 light (30 mins from a 500 W light source), read-out: EC50), 460 nM. The cellular localisation result with HeLa cells [2] is “primarily at the endoplasmic reticulum and not in the nucleus”.
